The values below come from paper PMC10779535, “Design and Synthesis of D3R Bitopic Ligands with Flexible Secondary Binding Fragments: Radioligand Binding and Computational Chemistry Studies” (Molecules, 2023).

Broadly, the IC50 is the midpoint of a concentration-inhibition curve.

Like-named read-outs stand apart in the source and are kept apart here.

The target in one experiment is T1, human D2 (Homo sapiens, UniProt P14416).
T1 construct: expressed in transfected cells
Briefly: D2R radioligand binding assay ([125I]IABN, HEK cells). The settings on record: human D2 expressed in HEK cells, [125I]IABN radioligand, at least three experiments, HCl salts; read-out: Ki ± SEM D2R. Here is the method: (§1) The receptor binding assay for the D2R and the D3R and the β-arrestin recruitment assay for the D3R were performed by following the previously reported methods.

Experiment [1] deals with T2, D3R (Homo sapiens, UniProt P35462). The experiment is described as follows: β-arrestin competition (recruitment) assay against dopamine. It counts as cell-based. The settings on record: competition with dopamine (30 nM) for the D3R, at least three experiments; read-out: β-Arrestin Assay IC50 ± SEM. The procedure:
Compounds having a longer aliphatic linker ((R,S)-trans-2b–d) have a similar IC50 value in this assay. As expected, the IC50 value of β-arrestin assay parallels the Ki value in the D3R binding assay. It is of interest to note that the potency of (R,S)-trans-2a in the β-arrestin assay is higher than its potency in the in vitro binding assay for the D3R.
as §1

Experiment [2] concerns the target T2, D3R. The experiment is described as follows: D3R radioligand binding assay ([125I]IABN, HEK cells). On the set-up: expressed in transfected cells. The settings on record: for Ki: human D3 expressed in HEK cells, [125I]IABN radioligand, at least three experiments, HCl salts, read-out: Ki ± SEM D3R; for D2R/D3R Ratio: (Ki for D2R)/(Ki for D3R), D3R versus D2R selectivity (fold). Here is the method:
as §1

Experiment [3] has as its target T2, D3R. The settings on record: cited from earlier work; for Ki: read-out: D3R affinity.
Experiment [4] concerns the target T2, D3R. On the set-up: method as in PMID 33918451. Conditions: MDS, Fallypride; cited from earlier work.
In the next experiment the target is D2R. The settings on record: cited from earlier work.
Setting [5] is: Figure 1, PET radiotracers, read-out: D2R affinity.

T2 sequence (P35462 whole entry): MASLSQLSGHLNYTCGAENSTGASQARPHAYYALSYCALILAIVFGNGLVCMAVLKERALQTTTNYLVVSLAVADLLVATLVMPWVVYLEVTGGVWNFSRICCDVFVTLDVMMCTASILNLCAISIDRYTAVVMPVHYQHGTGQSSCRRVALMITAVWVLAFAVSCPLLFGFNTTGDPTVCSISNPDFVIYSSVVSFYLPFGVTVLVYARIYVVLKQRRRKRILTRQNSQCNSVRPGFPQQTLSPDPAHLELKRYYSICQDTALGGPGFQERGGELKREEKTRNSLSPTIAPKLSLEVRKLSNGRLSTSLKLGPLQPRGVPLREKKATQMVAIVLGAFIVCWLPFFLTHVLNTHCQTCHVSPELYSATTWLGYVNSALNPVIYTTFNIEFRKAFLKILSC
T1 sequence (P14416 whole entry): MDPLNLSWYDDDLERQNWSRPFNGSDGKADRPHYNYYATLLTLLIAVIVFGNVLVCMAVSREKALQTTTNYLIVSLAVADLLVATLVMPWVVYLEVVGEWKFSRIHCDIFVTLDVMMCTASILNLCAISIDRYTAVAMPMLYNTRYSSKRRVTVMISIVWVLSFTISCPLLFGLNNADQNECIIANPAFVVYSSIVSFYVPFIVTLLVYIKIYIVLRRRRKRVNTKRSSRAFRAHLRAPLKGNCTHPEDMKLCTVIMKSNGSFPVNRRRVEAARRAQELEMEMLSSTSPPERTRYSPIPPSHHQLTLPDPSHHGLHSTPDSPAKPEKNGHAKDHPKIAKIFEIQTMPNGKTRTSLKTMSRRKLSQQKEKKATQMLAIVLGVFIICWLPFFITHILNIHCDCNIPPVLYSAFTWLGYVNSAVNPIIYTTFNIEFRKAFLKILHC

As for `C=CCN1C[C@H](OC(=O)NCCCCCCCCCC)C[C@@H]1CNC(=O)c1cc(CCCF)cc(OC)c1OC` [(R,R)-cis-2d, (3R,5R)-1-allyl-5-((5-(3-fluoropropyl)-2,3-dimethoxybenzamido)methyl)pyrrolidin-3-yl decylcarbamate], the Ki at human D2 came to 9600 ± 2360 nM; on D3R [2] it was 1660 ± 433 nM. In addition, the half-inhibitory concentration (IC50) on D3R [1] is over 1000 nM.

Regarding `C=CCN1C[C@H](OC(=O)NCCCCCCCCc2cccs2)C[C@@H]1CNC(=O)c1cc(CCCF)cc(OC)c1OC` [(R,R)-cis-2i, (3R,5R)-1-allyl-5-((5-(3-fluoropropyl)-2,3-dimethoxybenzamido)methyl)pyrrolidin-3-yl (8-(thiophen-2-yl)octyl)carbamate], the Ki at human D2 was found to be 2190 ± 235 nM. For the same compound, at D3R [2], the “D2R/D3R Ratio” value is recorded as 3.0 and the Ki is 722 ± 234 nM.

For `C=CCN1C[C@H](OC(=O)NCCCC)C[C@H]1CNC(=O)c1cc(CCCF)cc(OC)c1OC` [(R,S)-trans-2a, (3R,5S)-1-allyl-5-((5-(3-fluoropropyl)-2,3-dimethoxybenzamido)methyl)pyrrolidin-3-yl butylcarbamate], at human D2, the Ki worked out at 4.8 ± 0.5 nM. In addition, the 50% inhibitory concentration (IC50) at D3R [1] was 0.8 ± 0.5 nM. On D3R [2], the “D2R/D3R Ratio” value is 1.8 and the Ki was 2.6 ± 0.3 nM.

Take `C=CCN1C[C@H](OC(=O)NCCCCCC)C[C@H]1CNC(=O)c1cc(CCCF)cc(OC)c1OC` [(R,S)-trans-2b, (3R,5S)-1-allyl-5-((5-(3-fluoropropyl)-2,3-dimethoxybenzamido)methyl)pyrrolidin-3-yl hexylcarbamate]: the Ki on human D2 amounted to 5.5 ± 1 nM; at D3R [2], 1.6 ± 0.4 nM. The half-inhibitory concentration (IC50) at D3R [1] stood at 7.8 ± 5.9 nM. The “D2R/D3R Ratio” value on D3R [2] was determined as 3.4.

Turning to `C=CCN1C[C@H](OC(=O)NCCCCCCCC)C[C@H]1CNC(=O)c1cc(CCCF)cc(OC)c1OC` [(R,S)-trans-2c, (3R,5S)-1-allyl-5-((5-(3-fluoropropyl)-2,3-dimethoxybenzamido)methyl)pyrrolidin-3-yl octylcarbamate], the Ki at human D2 stood at 15.9 ± 3.3 nM. On D3R [1], the IC50 was 27.8 ± 21.1 nM. Besides, on D3R [2], the “D2R/D3R Ratio” value amounted to 4.7 and the Ki was 3.4 ± 0.8 nM.

Turning to `C=CCN1C[C@H](OC(=O)NCCCCCCCCCC)C[C@H]1CNC(=O)c1cc(CCCF)cc(OC)c1OC` [(R,S)-trans-2d, (3R,5S)-1-allyl-5-((5-(3-fluoropropyl)-2,3-dimethoxybenzamido)methyl)pyrrolidin-3-yl decylcarbamate], the results for the Ki on human D2 and on D3R [2] were 35.6 ± 8.1 nM and 2.8 ± 0.5 nM, respectively. In addition, at D3R [1], the 50% inhibitory concentration (IC50) amounted to 21.2 ± 9.8 nM.

On to `C=CCN1C[C@H](OC(=O)NCCOCCOCCOC)C[C@H]1CNC(=O)c1cc(CCCF)cc(OC)c1OC` [(R,S)-trans-2e, (3R,5S)-1-allyl-5-((5-(3-fluoropropyl)-2,3-dimethoxybenzamido)methyl)pyrrolidin-3-yl (2-(2-(2-methoxyethoxy)ethoxy)ethyl)carbamate], for which, at human D2, the Ki was found to be 9.2 ± 0.8 nM. In addition, on D3R [2], the “D2R/D3R Ratio” value worked out at 2.2 and the Ki was determined as 4.1 ± 0.6 nM.

Regarding `C=CCN1C[C@H](OC(=O)NCCOCCOCCOCCOC)C[C@H]1CNC(=O)c1cc(CCCF)cc(OC)c1OC` [(R,S)-trans-2f, (3R,5S)-1-allyl-5-((5-(3-fluoropropyl)-2,3-dimethoxybenzamido)methyl)pyrrolidin-3-yl (2,5,8,11-tetraoxatridecan-13-yl)carbamate], the Ki on human D2 is 11.5 ± 2.6 nM. Also, on D3R [2], the “D2R/D3R Ratio” value is given as 2.2 and the Ki was determined as 5.3 ± 0.8 nM.

As for `C#CCOCCOCCNC(=O)O[C@@H]1C[C@@H](CNC(=O)c2cc(CCCF)cc(OC)c2OC)N(CC=C)C1` [(R,S)-trans-2g, (3R,5S)-1-allyl-5-((5-(3-fluoropropyl)-2,3-dimethoxybenzamido)methyl)pyrrolidin-3-yl (2-(2-(prop-2-yn-1-yloxy)ethoxy)ethyl)carbamate], the Ki at human D2 is 9 ± 0.3 nM; on D3R [2], 3.7 ± 0.8 nM. Also, the “D2R/D3R Ratio” value on D3R [2] was 2.4.

As for `C=CCN1C[C@H](OC(=O)NCCCCCCc2cccs2)C[C@H]1CNC(=O)c1cc(CCCF)cc(OC)c1OC` [(R,S)-trans-2h, (3R,5S)-1-allyl-5-((5-(3-fluoropropyl)-2,3-dimethoxybenzamido)methyl)pyrrolidin-3-yl (6-(thiophen-2-yl)hexyl)carbamate], the Ki on human D2 was 3.9 ± 0.4 nM. Besides, on D3R [2], the “D2R/D3R Ratio” value turned out to be 6.2 and the Ki came out at 0.6 ± 0.1 nM.

As to `C=CCN1C[C@H](OC(=O)NCCCCCCCCc2cccs2)C[C@H]1CNC(=O)c1cc(CCCF)cc(OC)c1OC` [(R,S)-trans-2i, (3R,5S)-1-allyl-5-((5-(3-fluoropropyl)-2,3-dimethoxybenzamido)methyl)pyrrolidin-3-yl (8-(thiophen-2-yl)octyl)carbamate], the Ki at human D2 turned out to be 3.7 ± 0.2 nM. In addition, on D3R [2], the “D2R/D3R Ratio” value came to 5.6 and the Ki came to 0.7 ± 0.1 nM.

With `C=CCN1C[C@H](OC(=O)NCCCCCCCCc2ccsc2)C[C@H]1CNC(=O)c1cc(CCCF)cc(OC)c1OC` [(R,S)-trans-2j, (3R,5S)-1-allyl-5-((5-(3-fluoropropyl)-2,3-dimethoxybenzamido)methyl)pyrrolidin-3-yl (8-(thiophen-3-yl)octyl)carbamate], the Ki on human D2 was 10.5 ± 2 nM. Further, at D3R [2], the “D2R/D3R Ratio” value is recorded as 5.0 and the Ki worked out at 2.1 ± 0.1 nM.

For the compound `C=CCN1C[C@@H](OC(=O)NCCCCCCCCCC)C[C@@H]1CNC(=O)c1cc(CCCF)cc(OC)c1OC` [(S,R)-trans-2d, (3S,5R)-1-allyl-5-((5-(3-fluoropropyl)-2,3-dimethoxybenzamido)methyl)pyrrolidin-3-yl decylcarbamate], the Ki on human D2 amounted to 1940 ± 380 nM. Moreover, the half-inhibitory concentration (IC50) at D3R [1] is over 1000 nM. At D3R [2], the “D2R/D3R Ratio” value is on record as 0.7 and the Ki was 2630 ± 815 nM.

`C=CCN1C[C@@H](OC(=O)NCCCCCCCCc2cccs2)C[C@@H]1CNC(=O)c1cc(CCCF)cc(OC)c1OC` [(S,R)-trans-2i, (3S,5R)-1-allyl-5-((5-(3-fluoropropyl)-2,3-dimethoxybenzamido)methyl)pyrrolidin-3-yl (8-(thiophen-2-yl)octyl)carbamate]: at human D2, the Ki amounted to 1470 ± 166 nM. Also, on D3R [2], the “D2R/D3R Ratio” value is on record as 0.6 and the Ki was 2420 ± 975 nM.

In the case of `C=CCN1C[C@@H](OC(=O)NCCCCCCCCCC)C[C@H]1CNC(=O)c1cc(CCCF)cc(OC)c1OC` [(S,S)-cis-2d, (3S,5S)-1-allyl-5-((5-(3-fluoropropyl)-2,3-dimethoxybenzamido)methyl)pyrrolidin-3-yl decylcarbamate], the Ki at human D2 turned out to be 164 ± 29 nM; at D3R [2], 282 ± 69 nM. On D3R [1], the IC50 stood at 608 ± 231 nM.

On to `C=CCN1C[C@@H](OC(=O)NCCCCCCCCc2cccs2)C[C@H]1CNC(=O)c1cc(CCCF)cc(OC)c1OC` [(S,S)-cis-2i, (3S,5S)-1-allyl-5-((5-(3-fluoropropyl)-2,3-dimethoxybenzamido)methyl)pyrrolidin-3-yl (8-(thiophen-2-yl)octyl)carbamate], for which the Ki is 68 ± 12 nM at human D2 and 148 ± 37 nM on D3R [2].

Take `CCCN(CCC1(O)CC(NC(=O)c2ccc3ccccc3c2)C1)C1CC1c1ccc(Cl)cc1` (stereo not drawn) [CJ-1882]: on D3R [3] (CJ-1882), the Ki is 2.8 nM.

On to `C=CCN1CCC[C@H]1CNC(=O)c1cc(CCCF)cc(OC)c1OC` [Fallypride], for which the “Distance to D3R ASP110^3.32” value at D3R [4] is listed as 3.17 ± 0.21 Å. Further, at D2R (setting [5]), the Ki was 0.02 nM.

On to `CCN(CCCCNC(=O)c1cc2ccccc2[nH]1)CCNC(=O)c1cc(Br)cc(OC)c1OC` [HY-2-93], for which, on D3R [3] (HY-2-93), the “D3R/D2R, D3R versus D2R selectivity (fold)” value is 180 and the Ki was 0.8 nM.

With `CC[11CH2]N1CCO[C@@H]2c3cc(O)ccc3CC[C@H]21` [[^11C]-(+)-PHNO], the Ki on D2R (Figure 1, printed with superscript H, read-out: ^HD2R affinity) is 0.45 nM.

On to `CCN1CCC[C@H]1CNC(=O)c1cc(Br)cc(OC)c1O[11CH3]` [[^11C]FLB 457], for which, on D2R (setting [5]), the Ki was 0.022 nM. Besides, at D3R [3] (Figure 1, PET radiotracers), the D2R/D3R was 1.294 and the Ki is 0.017 nM.

With `CCN1CCC[C@H]1CNC(=O)c1c(O)c(Cl)cc(Cl)c1OC` [[^11C]Raclopride, Raclopride], the Ki on D2R (setting [5]) was 1.8 nM; on D3R [3] (Figure 1, PET radiotracers), 3.5 nM. Besides, the D2R/D3R at D3R [3] (Figure 1, PET radiotracers) is 0.514.
